Legend:
[1] = system: Dextran-induced edema formation in the ears of mice; assay: Inhibition of Dextran-induced edema formation in the ears of mice; assay type: in vivo, male Swiss mice; conditions: Column B, at 10 mg/kg body weight, 1 h before dextran; for inhibition in vivo at 10 mg/kg: Mus musculus, po, read-out: inhibition of Dextran-induced blueing of the ears of mice, % inhibition
Text: Inhibition of Dextran-induced edema formation in the ears of mice.
Intravenous injection of Dextran T500® (Pharmacia) and pontamine sky-blue dye into mice results in increased vascular permeability and edema formation, characterized by an intense blueing of the ears. Determination of the amount of extravasated dye is presumed to yield a quantitative measure of the 5-lipoxygenase inhibiting activity of the test compounds (Drug. Dev. Res. 8, 213-218, 1986). Unfasted male Swiss mice weighing 24-26 g were used in the experiments which were performed between 13.00 pm and 17.00 pm at an ambient temperature of 22±1° C. The mice were treated orally with a test compound of formula (I) dissolved in a volume of […] of either polyethyleneglycol (PEG 200) or hydroxypropyl cyclodextrine at doses varying between 1.25 and 40 mg per kg bodyweight. In control experiments the mice were administered an identical amount of solvent alone. One hour after treatment there was injected intravenously an isotonic saline solution containing 60 mg/ml Dextran T500® and 13 mg/ml pontamine sky-blue dye in a volume of 0.1 ml per 10 g bodyweight. One hour and forty-five minutes later the animals were sacrificed by ether and their ears were removed. Extraction and quantification of the extravasated dye were performed as described (Drug Dev. Res. 8, 213-218, 1986). The calculated percentage of inhibition of ear blueing upon administration of a compound of formula (I) at a dose of 10 mg/kg bodyweight is shown in the second column of table 12.

5-lipoxygenase = molecular target: T1, 5-lipoxygenase (Rattus norvegicus, UniProt P12527); assay: Arachidonate 5-lipoxygenase inhibition in Rat Basophilic Leukemia Cells Supernatant; assay type: biochemical; parameters: dose or concentration left out as unconfirmed; conditions: Column A, 5-HPETE and LTB4 formation; for inhibition: read-out: 5-lipoxygenase inhibition in RBL cells supernatant, % inhibition
T1 construct: The supernatant, aliquoted and stored at -70° C., was used as the source of 5-lipoxygenase activity; endogenous in cells; host or cells: Rat basophilic leukemia (RBL) cells, 10,000×g supernatant of the sonicate (crude, not purified)
T1 sequence (P12527 1-673): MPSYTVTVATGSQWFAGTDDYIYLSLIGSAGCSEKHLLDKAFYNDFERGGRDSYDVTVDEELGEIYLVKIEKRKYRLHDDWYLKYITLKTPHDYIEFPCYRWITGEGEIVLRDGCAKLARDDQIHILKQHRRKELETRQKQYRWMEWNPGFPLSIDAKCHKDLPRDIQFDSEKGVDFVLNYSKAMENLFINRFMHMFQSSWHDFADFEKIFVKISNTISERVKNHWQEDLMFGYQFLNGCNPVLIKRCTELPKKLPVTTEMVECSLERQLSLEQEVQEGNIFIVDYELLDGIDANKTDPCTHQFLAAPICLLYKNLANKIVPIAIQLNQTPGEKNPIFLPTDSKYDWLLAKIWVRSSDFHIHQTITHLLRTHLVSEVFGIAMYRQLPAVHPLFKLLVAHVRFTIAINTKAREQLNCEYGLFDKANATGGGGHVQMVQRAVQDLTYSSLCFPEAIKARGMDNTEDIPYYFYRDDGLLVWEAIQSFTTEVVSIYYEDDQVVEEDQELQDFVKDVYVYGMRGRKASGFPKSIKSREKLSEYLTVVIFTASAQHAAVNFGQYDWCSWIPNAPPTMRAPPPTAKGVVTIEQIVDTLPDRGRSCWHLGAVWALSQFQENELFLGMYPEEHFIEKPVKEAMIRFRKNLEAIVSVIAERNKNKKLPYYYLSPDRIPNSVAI

5-lipoxygenase inhibition in RBL cells supernatant, % inhibition (5-lipoxygenase) [%]	inhibition (5-lipoxygenase) [%]	Compound	inhibition of Dextran-induced blueing of the ears of mice, % inhibition ([1]; oral) [%]	inhibition in vivo at 10 mg/kg [1] [%]
	90	CCC(C)N1C(=O)N(c2ccc(N3CCN(c4ccc(O)cc4)CC3)cc2)C(C)(C)C1=O (stereo not shown) [Compound 6.12]		53
	90	CCCCN1CCCSC1=Nc1ccc(N2CCN(c3ccc(O)cc3)CC2)cc1 [Compound 2.01]		71
	81	O=c1n(-c2ccc(N3CCN(c4ccc(O)cc4)CC3)cc2)cnn1CC(F)(F)F [Compound 7.11]		81
	71	CCN1C(=S)N(c2ccc(N3CCN(c4ccc(O)cc4)CC3)cc2)C(=O)C1(C)C [Compound 5.13]		15
	100	CCC(C(=O)c1ccc(Br)cc1)n1ncn(-c2ccc(N3CCN(c4ccc(O)cc4)CC3)cc2)c1=O (stereo not shown) [Compound 7.36]		93
	69	CC12CCCN1C(=O)N(c1ccc(N3CCN(c4ccc(O)cc4)CC3)cc1)C2=O (stereo not shown) [Compound 5.10]		75
	45	CC(=O)C(C)N1C(=O)N(c2ccc(N3CCN(c4ccc(O)cc4)CC3)cc2)C(=O)C1(C)C (stereo not shown) [Compound 5.08]		76
	75	CCCN1C(=O)N(c2ccc(N3CCN(c4ccc(O)cc4)CC3)cc2)C(C)(C)C1=O [Compound 6.08]		89
	90	CCCCN1C(=O)N(c2ccc(N3CCN(c4ccc(O)cc4)CC3)cc2)C(C)(C)C1=O [Compound 6.10]		93
	66	CC(C(=O)c1ccc(F)cc1)n1ncn(-c2ccc(N3CCN(c4ccc(O)cc4)CC3)cc2)c1=O (stereo not shown) [Compound 7.14]		70
	87	Cc1nn(CC(C)C)c(=O)n1-c1ccc(N2CCN(c3ccc(O)cc3)CC2)cc1 [Compound 7.34]		66

Further lines, the molecule ahead of its results:

Compound	5-lipoxygenase inhibition in RBL cells supernatant, % inhibition (5-lipoxygenase) [%]	inhibition (5-lipoxygenase) [%]	inhibition of Dextran-induced blueing of the ears of mice, % inhibition ([1]; oral) [%]	inhibition in vivo at 10 mg/kg [1] [%]
CC(C(O)c1ccc(Cl)cc1Cl)n1ncn(-c2ccc(N3CCN(c4ccc(O)cc4)CC3)cc2)c1=O (stereo not shown) [Compound 7.23]	91		94	
Cc1nn(C(C)C(=O)c2ccc(Br)cc2)c(=O)n1-c1ccc(N2CCN(c3ccc(O)cc3)CC2)cc1 (stereo not shown) [Compound 7.57, 2-[2-(4-bromophenyl)-1-methyl-2-oxoethyl]-2,4-dihydro-4-[4-[4-(4-hydroxyphenyl)-1-piperazinyl]phenyl]-5-methyl-3H-1,2,4-triazol-3-one]		90		82
CC(C(O)c1ccc(Br)cc1)n1ncn(-c2ccc(N3CCN(c4ccc(O)cc4)CC3)cc2)c1=O (stereo not shown) [Compound 7.35]		100		79
CC(C(=O)c1cccc(Cl)c1)n1ncn(-c2ccc(N3CCN(c4ccc(O)cc4)CC3)cc2)c1=O (stereo not shown) [Compound 7.37]		100		73
CC(C(O)c1ccc(Cl)cc1Cl)n1ncn(-c2ccc(N3CCN(c4ccc(O)cc4)CC3)cc2)c1=O (stereo not shown) [Compound 7.22]		100		94
Cc1cc(N2CCN(c3ccc(-n4c(C)nn(C(C)C(O)c5ccc(Br)cc5)c4=O)cc3)CC2)cc(C)c1O (stereo not shown) [Compound 7.54, 2-[2-(4-bromophenyl)-2-hydroxy-1-methylethyl]-2,4-dihydro-4-[4-[4-(4-hydroxy-3,5-dimethylphenyl)-1-piperazinyl]phenyl]-5-methyl-3H-1,2,4-triazol-3-one]		79		76
CC(C(=O)c1ccc(Br)cc1)n1ncn(-c2ccc(N3CCN(c4ccc(O)cc4)CC3)cc2)c1=O (stereo not shown) [Compound 7.16]		94		91
Cc1cc(N2CCN(c3ccc(-n4c(C)nn(C(C)C(=O)c5ccc(Br)cc5)c4=O)cc3)CC2)cc(C)c1O (stereo not shown) [Compound 7.51, 2-[2-(4-bromophenyl)-1-methyl-2-oxoethyl]-2,4-dihydro-4-[4-[4-(4-hydroxy-3,5-dimethylphenyl)-1-piperazinyl]phenyl]-5-methyl-3H-1,2,4-triazol-3-one]		93		83
CCC(C)n1nc(C)n(-c2ccc(N3CCN(c4ccc(O)c(C)c4)CC3)cc2)c1=O (stereo not shown) [Compound 7.38]		100		88

— patent US4931444A, “5-lipoxygenase inhibiting 4-(4-phenyl-1-piperazinyl)phenols” (Janssen Pharmaceutica N.V., priority 1989, dated 1990)
